Laboratory results taken from patent US9518050B2, “Cyclohexyl and quinuclidinyl carbamate derivatives having β2 adrenergic agonist and M3 muscarinic antagonist activity” (priority 2012, dated 2016).

How the values were obtained:
[1] = molecular target: T1, human adrenergic beta2 receptor (Homo sapiens, UniProt P07550); test: Human adrenergic β2 receptor binding assay (3H-CGP12177, Sf9 cell membranes); details: 0.6 nM 3H-CGP12177, Sf9 membranes 5 μg/well, 60 min room temperature; read-out: Binding, IC50, nM β2
T1 construct: purchased Perkin Elmer; host or cells: Sf9 cells (overexpressed; membranes)
Procedure: Typically said beta2-adrenergic binding assay comprises: • a) providing a membrane suspension comprising Sf9 cells in an assay buffer • b) incubating with 3H-CGP12177 in plates previously treated with assay buffer containing a coating agent • c) measuring binding of test compound in the presence of propanolol • d) maintaining incubation • e) terminating the binding reactions • f) determining the affinity of the test compound for the receptor by repeating steps a) to e) using multiple different test compound concentrations. • g) calculating an IC50 using the four parameters-log equation.
Test 1: Human Adrenergic β1 and β2 Receptor Binding Assays
The study of binding to human adrenergic beta1 and beta2 receptors was performed using commercial membranes prepared from Sf9 cells where they are overexpressed (Perkin Elmer). The membrane suspensions (16 μg/well for beta1 and 5 μg/well for beta2) in assay buffer (75 mM Tris/HCl with 12.5 mM MgCl2 and 2 mM EDTA pH=7.4) were incubated with 0.14 or 0.6 nM of 3H-CGP12177 (Amersham) for beta 1 and beta 2 receptors respectively in a final volume of 250 μl, in GFC Multiscreen 96 well plates (Millipore) previously treated with assay buffer containing 0.3% PEI (Sigma). Non specific binding was measured in the presence of 1 μM propanolol. Incubation was maintained for 60 minutes at room temperature and with gentle shaking. The binding reactions were terminated by filtration and washing with 2.5 volumes of Tris/HCl 50 mM pH=7.4. The affinity of each test compound to the receptor was determined by using ten different concentrations ran in duplicate. IC50s were calculated using Activity Base software from IDBS and the four parameters-log equation.

[2] = molecular target: T2, human muscarinic M3 receptor (Homo sapiens, UniProt P20309); test: Human muscarinic M3 receptor binding assay ([3H]-NMS, CHO-K1 cell membranes); details: 1 nM [3H]-NMS, CHO-K1 membranes 4.9 μg/well, two hours incubation; read-out: Binding, IC50, nM M3
T2 construct: purchased Perkin Elmer; host or cells: CHO-K1 cells (membranes)
Procedure: Test 2: Human Muscarinic M1, M2, M3, M4 and M5 Receptors Binding Assays
The study of binding to human muscarinic M1, M2, M3, M4 and M5 receptors was performed using commercial membranes (Perkin Elmer) prepared from CHO-K1 cells. Radioligand binding experiments were conducted in 96 polypropylene well plates in a total volume of 200 μl. All reagents were dissolved in assay binding buffer (PBS with calcium and magnesium, SIGMA), except compounds that were dissolved in DMSO 100%. Non-specific binding (NSB) was measured in the presence of 1 μM atropine. [3H]-NMS was used as the radioligand at a concentration of 1 nM for M2, M3 and M5 and 0.3 nM for M1 and M4. [3H]-NMS and antagonists were incubated with membranes that express human muscarinic receptors M1, M2, M3, M4 and M5 at concentrations of 8.1, 10, 4.9, 4.5 and 4.9 μg/well, respectively.
After an incubation period of two hours with gentle shaking, 150 μl of the reaction mix were transferred to 96 GF/C filter plates (Millipore), previously treated with wash buffer (Tris 50 mM; NaCl 100 mM; pH:7.4), containing 0.05% PEI (Sigma) during one hour. Bound and free [3H]-NMS were separated by rapid vacuum filtration in a manifold from Millipore and washed four times with ice cold wash buffer. After drying 30 min, 30 μl of OPTIPHASE Supermix were added to each well and radioactivity quantified using a Microbeta microplate scintillation counter.
The affinity of each test compound to the receptors was determined by using ten different concentrations ran in duplicate. IC50s were calculated using Activity Base software from IDBS and the four parameters-log equation.

T2 sequence (P20309 whole entry): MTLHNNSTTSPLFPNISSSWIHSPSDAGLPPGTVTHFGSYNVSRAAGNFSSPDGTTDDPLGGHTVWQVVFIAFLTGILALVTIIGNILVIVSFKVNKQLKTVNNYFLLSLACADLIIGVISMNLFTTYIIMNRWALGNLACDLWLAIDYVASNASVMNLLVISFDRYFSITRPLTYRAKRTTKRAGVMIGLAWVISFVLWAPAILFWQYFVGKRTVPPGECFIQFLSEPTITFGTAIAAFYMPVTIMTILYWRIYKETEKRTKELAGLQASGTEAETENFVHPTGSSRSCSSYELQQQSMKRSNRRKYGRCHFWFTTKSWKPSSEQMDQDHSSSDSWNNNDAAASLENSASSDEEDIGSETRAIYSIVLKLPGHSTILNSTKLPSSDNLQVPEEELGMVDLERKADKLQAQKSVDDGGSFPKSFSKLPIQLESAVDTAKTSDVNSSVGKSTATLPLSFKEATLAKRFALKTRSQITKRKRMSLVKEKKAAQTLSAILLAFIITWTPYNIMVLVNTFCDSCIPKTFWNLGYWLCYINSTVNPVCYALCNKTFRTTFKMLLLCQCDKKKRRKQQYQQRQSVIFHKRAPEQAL

Substance	IC50 [1] [nM]	IC50 [2] [nM]
(3R)-1-azabicyclo[2.2.2]oct-3-yl(5-{4-[4-(2-{[(2R)-2-hydroxy-2-(8-hydroxy-2-oxo-1,2-dihydroquinolin-5-yl)ethyl]amino}ethyl)phenoxy]butyl}biphenyl-2-yl)carbamate dihydrofluoride [Example 21]	1.3	1.2
trans-4-[methyl(3-phenylpropyl)amino]cyclohexyl[4-(4-{[4-({[(2R)-2-hydroxy-2-(8-hydroxy-2-oxo-1,2-dihydroquinolin-5-yl)ethyl]amino}methyl)phenyl]amino}-4-oxobutyl)biphenyl-2-yl]carbamate dihydrofluoride [Example 40]	2	0.78
trans-4-aminocyclohexyl(4-{2-[({[2-chloro-4-({[(2R)-2-hydroxy-2-(8-hydroxy-2-oxo-1,2-dihydroquinolin-5-yl)ethyl]amino}methyl)-5-methoxyphenyl]amino}carbonyl)oxy]ethyl}biphenyl-2-yl)carbamate dihydrochloride [Example 49]	7.2	0.59
trans-4-aminocyclohexyl(4-{3-[{[2-chloro-4-({[(2R)-2-hydroxy-2-(8-hydroxy-2-oxo-1,2-dihydroquinolin-5-yl)ethyl]amino}methyl)-5-methoxyphenoxy]acetyl}(methyl)-amino]propyl}biphenyl-2-yl)carbamate dihydrochloride [Example 47]	8.5	0.65
trans-4-aminocyclohexyl(4-{4-[6-({[(2R)-2-hydroxy-2-(8-hydroxy-2-oxo-1,2-dihydroquinolin-5-yl)ethyl]amino}methyl)-5-methoxy-2-oxo-1,3-benzoxazol-3(2H)-yl]butyl}biphenyl-2-yl)carbamate dihydrofluoride [Example 39]	10	0.56
trans-4-aminocyclohexyl(4-{5-[6-({[(2R)-2-hydroxy-2-(8-hydroxy-2-oxo-1,2-dihydroquinolin-5-yl)ethyl]amino}methyl)-2-oxo-1,3-benzoxazol-3(2H)-yl]pentyl}biphenyl-2-yl)carbamate dihydrofluoride [Example 29]	19	1.1
trans-4-aminocyclohexyl(5-{4-[6-({[(2R)-2-hydroxy-2-(8-hydroxy-2-oxo-1,2-dihydroquinolin-5-yl)ethyl]amino}methyl)-2-oxo-1,3-benzoxazol-3(2H)-yl]butyl}biphenyl-2-yl)carbamate dihydrochloride [Example 34]	14	0.84
trans-4-aminocyclohexyl[4-(4-{[2-chloro-4-({[(2R)-2-hydroxy-2-(8-hydroxy-2-oxo-1,2-dihydroquinolin-5-yl)ethyl]amino}methyl)-5-methoxybenzoyl]amino}butyl)-biphenyl-2-yl]carbamate dihydrochloride [Example 60]	4.9	0.37
trans-4-aminocyclohexyl[4-(4-{[4-(2-{[(2R)-2-hydroxy-2-(8-hydroxy-2-oxo-1,2-dihydroquinolin-5-yl)ethyl]amino}propyl)phenyl]amino}-4-oxobutyl)biphenyl-2-yl]carbamate dihydrochloride [Example 45]	4.7	1.3
trans-4-aminocyclohexyl[4-(4-{[4-({[(2R)-2-hydroxy-2-(8-hydroxy-2-oxo-1,2-dihydroquinolin-5-yl)ethyl]amino}methyl)phenyl]amino}-4-oxobutyl)biphenyl-2-yl]carbamate dihydrofluoride [Example 23]	31	0.78
trans-4-aminocyclohexyl[4-(4-{[6-({[(2R)-2-hydroxy-2-(8-hydroxy-2-oxo-1,2-dihydroquinolin-5-yl)ethyl]amino}methyl)pyridin-3-yl]amino}-4-oxobutyl)-biphenyl-2-yl]carbamate dihydrochloride [Example 57]	7.4	0.86
trans-4-aminocyclohexyl[4-(4-{[trans-4-({[(2R)-2-hydroxy-2-(8-hydroxy-2-oxo-1,2-dihydroquinolin-5-yl)ethyl]amino}methyl)cyclohexyl]amino}-4-oxobutyl)biphenyl-2-yl]carbamate dihydrochloride [Example 44]	6.3	1.2
trans-4-aminocyclohexyl[4-(5-{[4-({[(2R)-2-hydroxy-2-(8-hydroxy-2-oxo-1,2-dihydroquinolin-5-yl)ethyl]amino}methyl)phenyl]amino}-5-oxopentyl)biphenyl-2-yl]carbamate dihydrochloride [Example 37]	18	1.2
